These results are taken from patent publication US7638623B2, “Galactoside inhibitors of galectins” (Forskarpatent I SYD AB, priority 2004, dated 2009).

For one experiment, the target named is T1, galectin-3 (Homo sapiens, UniProt P17931).
T1 construct: made in house; host or cells: Escherichia coli
In words: fluorescence polarization-based galectin-3 inhibition assay. Particulars: read-out: Calculated Kd. In kind it is binding. The procedure: NMR-spectra were recorded with a Bruker DRX-400 instrument. Chemical shifts are given in ppm, with reference to internal residual solvent peaks. Chemical shifts and coupling constants were obtained from ^1H-NMR and proton resonances were assigned from COSY experiments. High-resolution FAB mass spectra (HRMS) were recorded with a JEOL SX-120 instrument. Fluorescence polarization experiments were performed on a PolarStar instrument (BMG, Offenburg; Germany). Column chromatography was performed on SiO2 (Matrex, 60 Å, 35-70 μm, Grace Amicon) and TLC was carried out on SiO2 60 F254 (Merck) with detection under UV light and developed with aqueous sulfuric acid. Concentrations were made using rotary evaporation with bath temperature at or below 40° C. CH2Cl2 and CH3CN were dried by distillation from CaH2.
To 100 μL of galectin-3 (1 μM) and a fluorescent probe (2-(fluorescein-5/6-yl-carbonyl)-aminoethyl 4-O-[3-O-(4-methoxylbenzyl)-β-D-galactopyranosyl]-β-D-glucopyranoside, 0.1 μM) were added inhibitor solution (3.2-80 μM, 100 μL), the plate was incubated under slow rotary shaking in the dark for 5 minutes, and fluorescence polarization measured at room temperature. The fluorescence was measured from above in 96 well microtiter plates (black polystyrene, Costar, Corning, N.Y.) using a PolarStar instrument (BMG, Offenburg; Germany). Control wells containing only fluorescent probe or fluorescein were included. All dilutions and measurements were done in PBS.

For the next experiment, the system named is galectins. Particulars: cited from earlier work.

T1 sequence (P17931 whole entry): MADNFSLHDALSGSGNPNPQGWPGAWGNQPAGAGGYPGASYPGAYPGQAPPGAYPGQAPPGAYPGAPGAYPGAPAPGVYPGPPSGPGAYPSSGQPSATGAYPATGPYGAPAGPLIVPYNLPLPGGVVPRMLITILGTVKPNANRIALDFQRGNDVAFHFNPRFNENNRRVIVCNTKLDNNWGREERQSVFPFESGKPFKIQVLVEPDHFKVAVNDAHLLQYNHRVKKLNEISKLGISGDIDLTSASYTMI

As usually defined, the Kd is the free concentration of one partner at which half of the binding sites on the other are occupied at equilibrium, for simple one-to-one binding. On to `O=C(N[C@H]1[C@@H](O)[C@@H](CO)O[C@@H](S[C@@H]2O[C@H](CO)[C@H](O)[C@H](NC(=O)c3ccccc3)[C@H]2O)[C@@H]1O)c1ccccc1` [Compound 17, Bis-(3-deoxy-3-benzamido-β-D-galactopyranosyl) sulfane], for which the Kd at galectin-3 is 1.44 µM.

As for `COc1cc(OC)cc(C(=O)NC2C(O)[C@H](S[C@@H]3OC(CO)[C@H](O)C(NC(=O)c4cc(OC)cc(OC)c4)C3O)OC(CO)[C@@H]2O)c1` (stereo partly drawn) [Compound 19, Bis-[3-deoxy-(3,5-dimethoxybenzamido)-β-D-galactopyranosyl]sulfane], on galectin-3, the Kd was 0.02 µM.

As to `O=C(N[C@H]1[C@@H](O)[C@@H](CO)O[C@@H](S[C@@H]2O[C@H](CO)[C@H](O)[C@H](NC(=O)c3ccc([N+](=O)[O-])cc3)[C@H]2O)[C@@H]1O)c1ccc([N+](=O)[O-])cc1` [Compound 20, Bis-[3-deoxy-3-(4-nitrobenzamido)-β-D-galactopyranosyl]sulfane], the Kd at galectin-3 is 0.05 µM.

As to `O=C(N[C@H]1[C@@H](O)[C@@H](CO)O[C@@H](S[C@@H]2O[C@H](CO)[C@H](O)[C@H](NC(=O)c3ccc4ccccc4c3)[C@H]2O)[C@@H]1O)c1ccc2ccccc2c1` [Compound 21, Bis-[3-deoxy-3-(2-naphthamido)-β-D-galactopyranosyl]sulfane], on galectin-3, the Kd is 0.03 µM.

For `CO[C@@H]1OC(CO)[C@@H](O[C@@H]2OC(CO)[C@H](O)C(O)C2O)C(O)C1NC(C)=O` (stereo partly drawn) [Compound 22, methyl β-glycoside of N-acetyllactosamine, reference compound], at galectin-3, the Kd is 52 µM.

As for `O=C[C@H](O)[C@@H](O)[C@@H](O)[C@H](O)CO` [D-galactose], the “affinity, times lower than lactose” value in the experiment on galectins (relative to lactose) is 50-100 times.

`OC[C@H]1O[C@@H](O[C@H]2[C@H](O)[C@@H](O)C(O)O[C@@H]2CO)[C@H](O)[C@@H](O)[C@H]1O` (stereo partly shown) [lactose]: the Kd at galectins (all galectins) is 500 to 1000 µM.
